This passage reports IC50 and inhibition results from the Kinase Knowledgebase extract (Sharma et al. 2016).

The target of the first experiment is CDK2 (UniProt P24941). The experiment in a line: Enzyme Assay.
Details: not given
Broadly, the IC50 is the concentration needed to halve the response being measured. Lower therefore signals greater potency in that assay. In turn, `Nc1nc(OCC2CCCC2)c2nc[nH]c2n1` showed a half-maximal inhibitory concentration (IC50) of over 100 µM.

Turning to `CCOC(C)(COc1nc(N)nc2[nH]cnc12)OCC`, the half-inhibitory concentration (IC50) is over 100 µM.

Regarding `COCC(COc1nc(N)nc2[nH]cnc12)OC` (stereo not drawn), the IC50 was over 100 µM.

The compound `C=C(C)C1CC=C(COc2nc(N)nc3[nH]cnc23)CC1` (stereo not drawn) gave an IC50 of over 100 µM.

In the case of `Nc1nc(OCC(O)CO)c2nc[nH]c2n1` (stereo not drawn), the IC50 is over 100 µM.

`c1nc(OCC2CCCCO2)c2nc[nH]c2n1` (stereo not drawn) yielded a 50% inhibitory concentration (IC50) of over 100 µM.

In the case of `COC(COc1nc(N)nc2[nH]cnc12)(OC)c1ccccc1`, the IC50 is over 100 µM.

Turning to `C=CCOc1ncnc2[nH]cnc12`, the IC50 is over 100 µM.

Compound `Nc1nc(OCC2CCCCO2)c2nc[nH]c2n1` (stereo not drawn) displayed an IC50 of over 100 µM.

The compound `CC(C)C(=O)COc1nc(N)nc2[nH]cnc12` returned an IC50 of over 100 µM.

For `CC1(C)OC2OC(COc3nc(N)nc4[nH]cnc34)C3OC(C)(C)OC3C2O1` (stereo not drawn), the 50% inhibitory concentration (IC50) was over 100 µM.

In the case of `CCC(COc1nc(N)nc2[nH]cnc12)(OC)OC`, the IC50 is over 100 µM.

Compound `COC1OC(COc2nc(N)nc3[nH]cnc23)C2OC(C)(C)OC12` (stereo not drawn) showed an IC50 of over 100 µM.

On to `Nc1nc(OCc2ccc3ccccc3c2)c2nc[nH]c2n1`, for which the IC50 is over 100 µM.

For the compound `C=CCOc1nc(N)nc2[nH]cnc12`, the IC50 was over 100 µM.

Compound `CC(C)C1(COc2nc(N)nc3[nH]cnc23)OCCO1` yielded an IC50 of over 100 µM.

In turn, `Nc1nc(OCc2cccc3ccccc23)c2nc[nH]c2n1` returned a 50% inhibitory concentration (IC50) of over 100 µM.

The compound `CC1(C)OCC(COc2nc(N)nc3[nH]cnc23)O1` (stereo not drawn) gave an IC50 of over 100 µM.

With `Nc1nc(OCC2COC3(CCCCC3)O2)c2nc[nH]c2n1` (stereo not drawn), the IC50 was over 100 µM.

In turn, `Nc1nc(OCC23CC4CC(CC(C4)C2)C3)c2nc[nH]c2n1` showed an IC50 of over 100 µM.

Compound `Nc1nc(OCCc2ccccc2)c2nc[nH]c2n1` gave a half-inhibitory concentration (IC50) of over 100 µM.

On to `Nc1nc(OCC2COc3ccccc3O2)c2nc[nH]c2n1` (stereo not drawn), for which the concentration for half-maximal inhibition (IC50) is over 100 µM.

Still in this experiment, the particulars now being: concentration not given here.
As usually defined, the inhibition is the drop in the measured response relative to a control, in per cent. Lower therefore signals a response near the control. Take `Cc1ccc(N=Nc2c(N)nc(N)nc2OCC2CCCCC2)cc1`: the inhibition stood at 6%.
